The source of these data is patent publication US9683014B2, “Dipeptide mimetics of NGF and BDNF neurotrophins” (UCHREZHDENIE ROSSIISKOI AKADEMII MEDITSYNSKIKH NAUK …, priority 2009, dated 2017).

Assay [1] concerns rats with photothrombosis of the prefrontal cortex. The protocol: Male outbred rats weighing 180-200 g were used.
Experimental stages: surgery for photothrombosis, evaluation of motor activity (before and at 9 days after photothrombosis); PAR conditioning and the retention test at 9 days after photothrombosis; animal sacrifice, excision and fixation of the brain; morphologic examination and ischemic zone volume calculation.
(§1) The test substance was administered intraperitoneally at a dose of 1 mg/kg using the following regimen: at 1 h after surgery, at 24 h after the first administration, at 4 days and 6 days after the first administration.
PAR conditioning was performed according to the following protocol: The latency time (LT) was defined as the time between the start of testing and the moment of crossing the hole dividing the light and dark compartments. On day 1 the rat was placed in the light compartment (a 100 W light bulb) and, having explored it for a certain time (LT to learning), crossed into the dark compartment. Thereafter the door leading to this compartment was closed, and the rat was allowed to stay there for 5 min. One hour later the procedure was repeated by taking the rat out of the dark compartment. On the next day this procedure was repeated twice with a 1 h interval. During the second visit by the rat to the dark compartment the door was closed and electric current was passed through the metal bars in the floor (1.3 mA, 50 Hz, 5 sec). The PAR conditioning was considered established when the LT was at least 300 sec. Animals with lower LT values were excluded from the experiments.
(§2) A bilateral focal ischemic infarction of the prefrontal cortex of the rat brain (the Fr1 and Fr2 fields according to the atlas of Paxinos and Watson, 1986) was produced by the photoinduced thrombosis method (Watson et al., 1985). Animals were anesthetized with chloral hydrate (300 mg/kg i.p.). The photosensitive dye Bengal red (Sigma Chemical Co.) was injected into the jugular vein (3% solution, 40 mg/kg). The animal's head was clamped in the stereotaxis device, and the periosteum was removed after a longitudinal incision of the skin.
A light guide (the output light beam diameter 3 mm) was placed at a distance of 1 mm from the skull surface using the following coordinates: 2.00 mm rostral of the bregma and 2.00 mm lateral of the sagittal suture. Cold light illumination (a xenon lamp source, 25 V, 250 W) was carried out for 15 min at either side. Sham-operated animals were subjected to the same procedure except for the Bengal red injection. To assess their functional status, the animals were evaluated for their motor activity (MA) in a RODEO-1 automatic unit with an observation time of 5 min. The MA was analyzed before and at 9 days after the photothrombosis of the prefrontal cortex.

Assay [2] has the same test system. As to conditions: 1 mg/kg i.p. Here is the method:
as §1, §2
A light guide (the output light beam diameter 3 mm) was placed at a distance of 1 mm from the skull surface using the following coordinates: 2.00 mm rostral of the bregma and 2.00 mm lateral of the sagittal suture. Cold light illumination (a xenon lamp source, 25 V, 250 W) was carried out for 15 min at either side. […] To assess their functional status, the animals were evaluated for their motor activity (MA) in a RODEO-1 automatic unit with an observation time of 5 min. The MA was analyzed before and at 9 days after the photothrombosis of the prefrontal cortex.

The test system of assay [3] is rat cerebral cortex cells. To be noted: 1 mg/kg i.p., 4 injections; cells isolated day 16; FIG. 2.9. The protocol:
(§3) The experiments were conducted on male outbred rats weighing 350-420 g. The test compound was administered intraperitoneally at a dose of 1 mg/kg. On day 1 the animals were given the first injection of the test compound. 24 hours later (day 2) they underwent surgery for a bilateral ligation of the carotid artery. Following another 24 h (day 3) the animals were given the second injection of the test compound. 96 hours later (day 7) they were given the third injection of the test compound. Following another 24 h (day 8) the animals were tested in an open field test (Jackson H. F., Broadhurst P. L. The effects of parachlorophenylalanine and stimulus intensity on open-field test measures in rats. Neuropharmacology, 1982, 21, 1279-1282). On the next day (day 9) they were allowed to explore new objects (a modification of the test described in Ennaceur A., Delacour J. A new one-trial test for neurobiological studies of memory in rats. 1: Behavioral data. Behavioral Brain Research, 1988, 31, 47-59). On day 11 the animals were given the fourth injection of the test compound. The animals were sacrificed by decapitation 120 hours after the last injection of the test compound (day 16).
(§4) The rats were distributed into 3 groups (n≧8 for each group) at random. Group 1 (sham-operated) comprised animals that were anesthetized followed by a sham operation and subsequently received 4 injections of physiological saline according to the experimental set-up; Group 2 (ligation) comprised animals that were anesthetized followed by surgery for a bilateral ligation of the carotid artery and subsequently received 4 injections of saline according to the experimental set-up; Group 3 (ligation+test compound) comprised animals that were anesthetized followed by surgery for a bilateral ligation of the carotid artery and subsequently received 4 injections of the test compound according to the experimental set-up.

Assay [4] deals with rats with bilateral ligation of the carotid artery. As to conditions: 1 mg/kg i.p. The protocol: as §3, §4
In assay [5] the test system is rats. The protocol: The experiments were conducted on white male outbred rats weighing 250-280 g. Haloperidol (1.0 mg/kg i.p.), a D1/D2 dopamine receptor blocker, was used to induce catalepsy. The intensity of catalepsy was assessed by measuring the time during which the animal maintained an assumed posture. The measurements were performed 60 minutes after the haloperidol injection. The test compound was administered intraperitoneally at selected doses (0.01, 0.1, 1.0 and 5.0 mg/kg) 24 hours prior to haloperidol. Control animals were treated with an equivalent volume of distilled water. Statistical data treatment was carried out using the exact Fisher test.

Assay [6] concerns rats. As to conditions: 1.0 mg/kg i.p. 24 h prior to apomorphine (pretreatment); FIG. 2.10. Here is the method:
The control group was treated with distilled water according to the same regimen.

The test system of assay [7] is Wistar rats. As to conditions: 1.0 mg/kg i.p. 24 h prior to scopolamine 1.0 mg/kg s.c.; FIG. 2.11. Here is the method: Male Wistar rats weighing 190-220 g were used for this experiment. The test compound was administered intraperitoneally at a dose of 1.0 mg/kg at 24 hours prior to the scopolamine injection (1.0 mg/kg s.c.). The control group was treated with distilled water according to the same regimen. Scopolamine was injected 60 min before placing the animals in a T-shaped maze. Following a further 120 min the animals were subjected to testing in accordance with the original protocol (Deacon R. M. J., Rawlins J. N. P. T-maze alternation in the rodent. Nature Protocols, 2006, 1(1), 7-12).

Assay [8] relates to rats with ischemic cerebral infarction.
The test system is the same in assay [9]. To be noted: 7 days after surgery; 1 mg/kg i.p. x3.

Where two headings read alike, the source gives them in different places. Marks after values point to notes of the source that are not given here.

As for `NCCCC[C@H](NC(=O)[C@H](CCC(=O)O)NC(=O)CCC(=O)O)C(=O)NCCCCCCNC(=O)[C@H](CCCCN)NC(=O)[C@H](CCC(=O)O)NC(=O)CCC(=O)O` [GK-2, bis-(N-monosuccinyl-glutamyl-lysine) hexamethylenediamide], the “retention of the PAR” value in assay [1] (1 mg/kg i.p.) worked out at 100%. Moreover, the “latency time of PAR, individual rats” value in assay [1] (1 mg/kg i.p. at 1 h, 24 h, 4 and 6 days, at 8 days after photothrombosis, saline 20-105, sham 300) amounted to 300 s. The “latency time of PAR, group mean” value in assay [1] (1 mg/kg i.p., n = 9, saline 59.2, sham 300) is 300 s. In addition, in [1] (1 mg/kg i.p., photothrombosis alone 59.2 sec), the “latency time of PAR” value is given as “at least 300 sec”. Further, the “lesion volume (left and right hemispheres, per rat, mean)” value in assay [2] (FIG. 2.4) is reported as “reduced”. Also, the “protection effectiveness rate (PER)” value in assay [2] (PER=(V0−Vs)/V0×100%) came out at 61%. Also, the “viability of the cortical cells (MTT)” value in assay [3] is on record as “enhanced”. Also, the “horizontal motor activity in the open field test” value in [4] (day 8, ligation reduced it, FIG. 2.5) is reported as “restored it to the level found in the sham-operated rats”. Also, the “vertical motor activity in the open field test” value in assay [4] (day 8, ligation reduced it, FIG. 2.6) was “restored it to the level found in the sham-operated rats”. The “total object smelling time and first-minute object exploration” value in assay [4] (day 9, FIGS. 2.7, 2.8) was “not different from the sham-operated rats”. Besides, the “Intensity of catalepsy (% of control)” value is given as 14* % of control in assay [5] (0.01 mg/kg i.p. 24 h prior to haloperidol 1.0 mg/kg i.p., measured 60 min after haloperidol); 98 % of control in assay [5] (0.1 mg/kg i.p. 24 h prior to haloperidol); 25* % of control in assay [5] (1.0 mg/kg i.p. 24 h prior to haloperidol); 13* % of control in [5] (5.0 mg/kg i.p. 24 h prior to haloperidol). For the same compound, the “intensity of apomorphine-induced oral stereotypy” value in assay [6] is reported as “enhanced the intensity”. The “scopolamine-induced working memory impairment (spontaneous alternation, T-maze)” value in assay [7] is given as “could prevent”. Besides, the “animals with swelling of the affected hemisphere” value in [8] (1 mg/kg i.p. at 1, 24, 48 h post-ischemia, NMRT day 7, control group 46%) turned out to be 9%. Moreover, the mortality rate in [8] (1 mg/kg i.p. at 1, 24, 48 h post-ischemia, control also 3) is given as 3 animals. This compound yielded an ischemic lesion volume in [8] (1 mg/kg i.p. x3, NMRT day 7, n=12, saline control 266±20) of 222±16 mm^3. Also, the “reduction of lesion volume” value in assay [8] (1 mg/kg i.p. x3, versus saline control) worked out at 16.5%. For the same compound, the “reduction in use of the affected limb and simultaneous use of 2 forelimbs” value in [9] is “much less pronounced”.
